How the values were obtained:
EGFP = test: 2-MeOE2 treatment of HK2 reporter cell line, transcriptional level of EGFP reporter; type: cell-based; details: HK2 cell line treated for 24 h or 48 h, 10 uM, relative transcriptional level vs untreated control
Method: (§1) 2-Methoxyestradiol (2-MeOE2) is an HIF inhibitor, and at present, has entered an anti-tumor clinical second-stage test stage. […] The HK2 cell line is treated for 24 h or 48 h in 2-MeOE2 (10 uM), and the relative expression changes of the transcriptional level of HK2 and EGFP and those untreated as a control are analyzed. […] The experimental result further proves that the colorectal cancer HK2 reporter gene cell line constructed in the present invention can be used for screening and evaluating related anticancer drugs.

HK2 = test: 2-MeOE2 treatment of HK2 reporter cell line, transcriptional level of HK2; type: cell-based; details: HK2 cell line treated for 24 h or 48 h, 10 uM, relative transcriptional level vs untreated control
Method: as §1

SMILES: COc1cc2c(cc1O)CC[C@@H]1[C@@H]2CC[C@]2(C)[C@@H](O)CC[C@@H]12 [2-MeOE2, 2-Methoxyestradiol]
- expression of the EGFP (EGFP): synergistically inhibited
- expression level of HK2 (HK2): obviously inhibited
